Experimental data from article PMC3500847 (ChemMedChem, 2012).
Bridge positions count the residues as written; N and C are the ends. Square brackets hold non-standard residues; d marks the D form. Peptide text beside a SMILES is read from it. d(aThr) = C[C@@H](O)[C@@H](N)C(=O)O; 12Ado = NCCCCCCCCCCCC(=O)O

How the values were obtained:
[1] = test system: S. aureus ATCC 33591 (MRSA); assay type: cell-based, Staphylococcus aureus
[2] = test system: S. aureus ATCC 700699 (Mu50, VRSA); assay type: cell-based, Staphylococcus aureus
[3] = test system: variety of fungi, including Candida albicans and Cryptococcus neoformans, and Gram-positive bacteria such as S. aureus; conditions: range over fungi and Gram-positive bacteria; cited from earlier work
[4] = test system: human liver embryonic cell line WRL 68; assay type: cell-based
HepG2 cancer cell line = assay type: cell-based, human

| MIC [1] [µg/mL] | MIC [2] [µg/mL] | Molecule | MICs [3] [µg/mL] | cytotoxicity [4] | cytotoxicity (HepG2 cancer cell line) |
| --- | --- | --- | --- | --- | --- |
| >128 | >128 | CC(C)[C@@H]1NC(=O)[C@@H](C(C)C)NC(=O)[C@@H](NC(=O)CCCCCCCCCCCN)[C@@H](C)OC(=O)[C@@H](C)NC(=O)[C@@H](CC(N)=O)NC(=O)[C@@H]([C@H](C)O)NC1=O [compound 3] (H-[12Ado]T[dV]V[dT][dN][dA]; ester 2-C) | – | – | – |
| >128 | >128 | CC(C)[C@@H]1NC(=O)[C@@H](C(C)C)NC(=O)[C@@H](NC(=O)CCCCCCCCCCCN)[C@@H](C)OC(=O)[C@@H](C)NC(=O)[C@@H](CC(N)=O)NC(=O)[C@@H]([C@@H](C)O)NC1=O [compound 4] (H-[12Ado]T[dV]V[d(aThr)][dN][dA]; ester 2-C) | – | – | – |

Further lines, the molecule ahead of its results:

| Molecule | MIC [1] [µg/mL] | MIC [2] [µg/mL] | MICs [3] [µg/mL] | cytotoxicity [4] | cytotoxicity (HepG2 cancer cell line) |
| --- | --- | --- | --- | --- | --- |
| CC(=O)N[C@@H]1C(=O)N[C@H](C(C)C)C(=O)N[C@@H](C(C)C)C(=O)N[C@H]([C@@H](C)O)C(=O)N[C@H](CC(N)=O)C(=O)N[C@H](C)C(=O)O[C@@H]1C [compound 2] (Ac-T[dV]V[d(aThr)][dN][dA]; ester 1-C) | >128 | >128 | – | – | – |
| fusaricidin A | – | – | 0.78 to 3.12 | – | – |
| CC(=O)N[C@@H]1C(=O)N[C@H](C(C)C)C(=O)N[C@@H](C(C)C)C(=O)N[C@H]([C@H](C)O)C(=O)N[C@H](CC(N)=O)C(=O)N[C@H](C)C(=O)O[C@@H]1C [compound 1] (Ac-T[dV]V[dT][dN][dA]; ester 1-C) | >128 | >128 | – | did not show appreciable cytotoxicity | did not show appreciable cytotoxicity |
